Data on one compound can be found in patent US20080275014A1, “Clobetasol Propionate Shampoos for the Treatment of Seborrheic Dermatitis of the Scalp” (Galderma S.A., priority 2004, published 2008).

This data set can be described thus: Clobetasol plasma levels. The data set is classed as in vivo, human. The conditions noted are these: 45 subject plasma samples; after topical scalp treatment. How it is done:
This study was conducted as a single center, randomized, investigator-masked and competitor comparison of 4 parallel groups involving Psoriasis and Scalp seborrheic dermatitis subjects. The aim of the trial was to evaluate the opthalmological irritation potential and the potential to suppress the HPA axis of Clobetasol Propionate Shampoo, 0.05%. During 4 weeks, psoriasis subjects had to treat their scalp once a day with Clobetasol Shampoo, 0.05% or with Dermoval/Temovate gel. Scalp seborrheic dermatitis subjects had to treat their scalp twice a week with Clobetasol Shampoo, 0.05% or on a day with Dermoval/Temovate gel.
Each subjects was submitted at each visit (each week during 4 weeks) to the following tests, ocular examination, HPA-axis function, local and general safety. First, opthalmological examination, measurement of intraocular pressure, detection of ocular subjective symptoms such as burning sensation, measurement of far and near visual acuity. Second, they were sampled for serum cortisol levels and were submitted to the Cosyntropin (Synacthene) stimulation assay. Cutaneous safety (skin atrophy using B-Scan ultra-sound and telangiectasis) and adverse events were also recorded. Systemic safety was also assessed by routine laboratory test and detection of Clobetasol Plasma levels, cutaneous safety, and DSS at the end of the study.

The structures appear in SMILES notation.

Turning to `CCC(=O)O[C@]1(C(=O)CCl)[C@@H](C)C[C@H]2[C@@H]3CCC4=CC(=O)C=C[C@]4(C)[C@@]3(F)[C@@H](O)C[C@@]21C` [Clobatasol 17-propionate, clobetasol 17-propionate], the “amounts found in subject plasma samples” value was “No detectable amounts”.
